# Measured values from ChEMBL document CHEMBL3046001, “4-Thiazolidinone and 1-thia-3,4,9-triaza fluorene conjugates: synthesis, characterization and antimicrobial screening” (2013).
# Columns and labels:
# Assay type in all cases: functional
# [1] = system: Penicillium chrysogenum; assay: Antifungal activity against Penicillium chrysogenum MTCC 161 assessed as growth inhibition at 10 ug/mL after 48 hr by agar diffusion method; conditions: MTCC 161, 48 h, read-out: DIZ
# [2] = system: Penicillium chrysogenum; assay: Antifungal activity against Penicillium chrysogenum MTCC 161 assessed as growth inhibition after 24 hr by tube dilution method; conditions: MTCC 161, 24 h
# [3] = system: Aspergillus niger; assay: Antifungal activity against Aspergillus niger MTCC 2546 assessed as growth inhibition at 10 ug/mL after 48 hr by agar diffusion method; conditions: MTCC 2546, 48 h, read-out: DIZ
# [4] = system: Aspergillus niger; assay: Antifungal activity against Aspergillus niger MTCC 2546 assessed as growth inhibition after 24 hr by tube dilution method; conditions: MTCC 2546, 24 h
# [5] = system: Pseudomonas fluorescens; assay: Antibacterial activity against Pseudomonas fluorescens MTCC 2421 assessed as growth inhibition at 10 ug/mL after 48 hr by agar diffusion method; conditions: MTCC 2421, 48 h, read-out: DIZ
# [6] = system: Staphylococcus aureus; assay: Antibacterial activity against Staphylococcus aureus MTCC 1430 assessed as growth inhibition at 10 ug/mL after 48 hr by agar diffusion method; conditions: MTCC 1430, 48 h, read-out: DIZ
# [7] = system: Micrococcus luteus; assay: Antibacterial activity against Micrococcus luteus MTCC 1538 assessed as growth inhibition at 10 ug/mL after 48 hr by agar diffusion method; conditions: MTCC 1538, 48 h, read-out: DIZ
# [8] = system: Pseudomonas aeruginosa; assay: Antibacterial activity against Pseudomonas aeruginosa MTCC 424 assessed as growth inhibition after 24 hr by tube dilution method; conditions: MTCC 424, 24 h
# [9] = system: Escherichia coli; assay: Antibacterial activity against Escherichia coli MTCC 1573 assessed as growth inhibition at 10 ug/mL after 48 hr by agar diffusion method; conditions: MTCC 1573, 48 h, read-out: DIZ
# [10] = system: Pseudomonas fluorescens; assay: Antibacterial activity against Pseudomonas fluorescens MTCC 2421 assessed as growth inhibition after 24 hr by tube dilution method; conditions: MTCC 2421, 24 h
# [11] = system: Bacillus pumilus; assay: Antibacterial activity against Bacillus pumilus MTCC 1456 assessed as growth inhibition at 10 ug/mL after 48 hr by agar diffusion method; conditions: MTCC 1456, 48 h, read-out: DIZ
# [12] = system: Staphylococcus aureus; assay: Antibacterial activity against Staphylococcus aureus MTCC 1430 assessed as growth inhibition after 24 hr by tube dilution method; conditions: MTCC 1430, 24 h
# [13] = system: Pseudomonas aeruginosa; assay: Antibacterial activity against Pseudomonas aeruginosa MTCC 424 assessed as growth inhibition at 10 ug/mL after 48 hr by agar diffusion method; conditions: MTCC 424, 48 h, read-out: DIZ
# [14] = system: Bacillus subtilis; assay: Antibacterial activity against Bacillus subtilis MTCC 441 assessed as growth inhibition at 10 ug/mL after 48 hr by agar diffusion method; conditions: MTCC 441, 48 h, read-out: DIZ
# [15] = system: Bacillus subtilis; assay: Antibacterial activity against Bacillus subtilis MTCC 441 assessed as growth inhibition after 24 hr by tube dilution method; conditions: MTCC 441, 24 h
# [16] = system: Bacillus pumilus; assay: Antibacterial activity against Bacillus pumilus MTCC 1456 assessed as growth inhibition after 24 hr by tube dilution method; conditions: MTCC 1456, 24 h
# [17] = system: Micrococcus luteus; assay: Antibacterial activity against Micrococcus luteus MTCC 1538 assessed as growth inhibition after 24 hr by tube dilution method; conditions: MTCC 1538, 24 h
Structure (SMILES),zone of inhibition at 10 µg/mL [1],MIC [2],zone of inhibition at 10 µg/mL [3],MIC [4],zone of inhibition at 10 µg/mL [5],zone of inhibition at 10 µg/mL [6],zone of inhibition at 10 µg/mL [7],MIC [8],zone of inhibition at 10 µg/mL [9],MIC [10],zone of inhibition at 10 µg/mL [11],MIC [12],zone of inhibition at 10 µg/mL [13],zone of inhibition at 10 µg/mL [14],MIC [15],MIC [16],MIC [17]
OC(Cn1cncn1)(Cn1cncn1)c1ccc(F)cc1F [FLUCONAZOLE],23 mm,1.25 µg/mL,22 mm,2.5 µg/mL,,,,,,,,,,,,,
CCn1cc(C(=O)O)c(=O)c2cc(F)c(N3CCNCC3)cc21 [NORFLOXACIN],,,,,27 mm,22 mm,24 mm,2.5 µg/mL,25 mm,2.5 µg/mL,30 mm,5 µg/mL,26 mm,25 mm,2.5 µg/mL,1.25 µg/mL,2.5 µg/mL
